Each molecule was assayed against human TRPM8 (Homo sapiens (Human), UniProt Q7Z2W7) (assay: TRPM8 inhibition assay (menthol-induced calcium influx, FDSS)). Conditions: HEK293 cells stably expressing human TRPM8; 100 μM menthol; Fura-2AM Ca2+ signal; read-out: TRPM8 Blocking Test (IC50).
Format: cell-based

Sequence of human TRPM8 (Q7Z2W7 whole entry): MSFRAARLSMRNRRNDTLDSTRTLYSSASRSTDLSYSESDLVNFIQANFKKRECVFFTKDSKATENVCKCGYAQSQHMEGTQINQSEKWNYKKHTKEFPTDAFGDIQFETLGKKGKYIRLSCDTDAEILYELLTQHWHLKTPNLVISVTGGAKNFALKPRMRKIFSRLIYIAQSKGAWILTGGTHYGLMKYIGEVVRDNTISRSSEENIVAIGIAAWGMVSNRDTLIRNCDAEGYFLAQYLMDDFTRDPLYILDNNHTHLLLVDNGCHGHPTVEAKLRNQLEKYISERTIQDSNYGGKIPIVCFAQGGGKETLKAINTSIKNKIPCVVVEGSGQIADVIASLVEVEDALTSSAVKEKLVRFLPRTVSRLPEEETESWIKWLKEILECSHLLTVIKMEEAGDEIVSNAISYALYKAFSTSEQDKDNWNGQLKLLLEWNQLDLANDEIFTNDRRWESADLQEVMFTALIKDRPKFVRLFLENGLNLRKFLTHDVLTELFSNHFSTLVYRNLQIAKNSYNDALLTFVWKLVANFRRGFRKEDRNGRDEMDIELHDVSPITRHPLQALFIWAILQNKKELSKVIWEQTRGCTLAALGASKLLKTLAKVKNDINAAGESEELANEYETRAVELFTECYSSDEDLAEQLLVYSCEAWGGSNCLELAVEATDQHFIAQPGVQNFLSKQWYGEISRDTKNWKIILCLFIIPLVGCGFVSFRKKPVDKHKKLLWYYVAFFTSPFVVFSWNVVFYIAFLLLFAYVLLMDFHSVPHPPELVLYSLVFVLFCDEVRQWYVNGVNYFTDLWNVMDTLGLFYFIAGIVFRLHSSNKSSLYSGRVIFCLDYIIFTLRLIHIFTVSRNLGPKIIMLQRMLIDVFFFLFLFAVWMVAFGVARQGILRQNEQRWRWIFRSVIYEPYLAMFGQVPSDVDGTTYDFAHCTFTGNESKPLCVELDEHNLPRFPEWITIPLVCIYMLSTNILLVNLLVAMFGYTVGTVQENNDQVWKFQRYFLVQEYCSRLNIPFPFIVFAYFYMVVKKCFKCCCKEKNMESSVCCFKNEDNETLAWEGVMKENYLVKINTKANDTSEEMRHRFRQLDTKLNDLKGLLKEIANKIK

Compound | IC50 [nM]
CC(C)c1c(N(Cc2ccc(OC(F)(F)F)cc2)S(=O)(=O)c2ccc(C(=O)O)cc2)ncc2ccccc12 [Example 227] | 5.6
COc1c(N(Cc2ccc(OC(F)(F)F)cc2)S(=O)(=O)c2ccc(C(=O)O)cc2)ncc2ccccc12 [Example 149] | 3.9
O=C(O)c1ccc(S(=O)(=O)N(c2ncc3ccccc3c2C2CC2)C2CCc3cc(OC(F)(F)F)ccc32)cc1 (stereo not drawn) [Example 186] | 4.3
Cc1c(N(Cc2ccc(-c3ccc(F)cc3)cc2)S(=O)(=O)c2ccc(C(=O)O)cc2)ncc2ccccc12 [Example 8, 4-{[[(4′-fluorobiphenyl-4-yl)methyl](4-methylisoquinolin-3-yl)amino]sulfonyl}benzoic acid] | 26
O=C(O)c1ccc(S(=O)(=O)N(Cc2ccc(OC(F)(F)F)cc2)c2ncc3ccccc3c2C(F)(F)F)cc1 [Example 106, 4-({[4-(trifluoromethoxy)benzyl][4-(trifluoromethyl)isoquinolin-3-yl]amino}sulfonyl)benzoic acid] | 2
Cc1c(N(Cc2cccc(C(F)(F)C3CC3)c2)S(=O)(=O)c2ccc(C(=O)O)cc2)ncc2ccccc12 [Example 205] | 31
O=C(O)c1ccc(S(=O)(=O)N(c2ncc3ccccc3c2C2CC2)C2CCc3cc(OC(F)(F)F)ccc32)cc1 (stereo not drawn) [Example 187] | 128
Cc1nc2ccc(CN(c3ncc4ccccc4c3C)S(=O)(=O)c3ccc(C(=O)O)cc3)cc2s1 [Example 190] | 148
O=C(O)c1ccc(S(=O)(=O)N(Cc2ccc(OC(F)(F)F)cc2)c2nc(C3CC3)c3ccccc3c2C2CC2)cc1 [Example 232] | 10
Cc1c(N(Cc2ccc(OC(F)(F)F)cc2)S(=O)(=O)c2ccc(C(=O)O)cc2)nc(C(C)O)c2ccccc12 (stereo not drawn) [Example 115, 4-({[1-(1-hydroxyethyl)-4-methylisoquinolin-3-yl][4-(trifluoromethoxy)benzyl]amino}sulfonyl)benzoic acid] | 97
Cc1c(N(Cc2ccc(OC3CCCC3)cc2)S(=O)(=O)c2ccc(C(=O)O)cc2)ncc2ccccc12 [Example 46] | 17
CCc1nc(N(Cc2ccc(OC(F)(F)F)cc2)S(=O)(=O)c2ccc(C(=O)O)cc2)c(C)c2ccccc12 [Example 214] | 8.1
Cc1cc2ccccc2nc1N(Cc1ccc(CC2CC2)cc1)S(=O)(=O)c1ccc(C(=O)O)cc1 [Example 183] | 7.7
Cc1cccc2cnc(N(Cc3ccc(OC(F)(F)F)cc3)S(=O)(=O)c3ccc(C(=O)O)cc3)c(C)c12 [Example 137] | 3.1
Cc1c(N(Cc2cc3cc(Cl)ccc3s2)S(=O)(=O)c2ccc(C(=O)O)cc2)ncc2ccccc12 [Example 200] | 5.4
COC(C)(c1ccc(CN(c2ncc3ccccc3c2C)S(=O)(=O)c2ccc(C(=O)O)cc2)cc1)C(F)(F)F (stereo not drawn) [Example 96] | 4.7
Cc1c(N(Cc2ccc(OC(F)(F)F)cc2)S(=O)(=O)c2ccc(C(N)=O)cc2)ncc2ccccc12 [Example 123, 4-({(4-methylisoquinolin-3-yl)[4-(trifluoromethoxy)benzyl]amino}sulfonyl)benzamide] | 21
Cc1c(N(Cc2ccc(C(F)(F)C3CC3)cc2)S(=O)(=O)c2ccc(C(=O)O)cc2)ncc2ccccc12 [Example 191] | 4.6
Cc1c(N(Cc2ccc(C(C)(O)C(F)(F)C(F)(F)F)cc2)S(=O)(=O)c2ccc(C(=O)O)cc2)ncc2ccccc12 (stereo not drawn) [Example 174] | 35
O=C(O)c1ccc(S(=O)(=O)N(Cc2ccc(OC(F)(F)F)cc2)c2ncc3ccccc3c2Br)cc1 [Example 154] | 2.3
Cc1c(N(Cc2ccc(-c3ccccc3)nc2)S(=O)(=O)c2ccc(C(=O)O)cc2)ncc2ccccc12 [Example 70] | 95
O=C(O)c1ccc(S(=O)(=O)N(Cc2ccc(OC(F)(F)F)cc2)c2cc3c(Cl)cccc3c(Br)n2)cc1 [Example 148] | 287
Cc1c(N(Cc2ccc(F)c(C(F)(F)F)c2)S(=O)(=O)c2ccc(C(=O)O)cc2)nc(C2CC2)c2ccccc12 [Example 132] | 3.8
Cc1c(N(Cc2cc3ccc(Cl)cc3s2)S(=O)(=O)c2ccc(C(=O)O)cc2)ncc2ccccc12 [Example 198] | 11
Cc1c(N(Cc2ccc(CC3(C(F)(F)F)CC3)cc2)S(=O)(=O)c2ccc(C(=O)O)cc2)ncc2ccccc12 [Example 193] | 3.9
Cc1cc2ccccc2nc1N(Cc1ccc(OC(F)(F)F)cc1)S(=O)(=O)c1ccc(C(=O)O)cc1 [Example 17] | 5

What follows are molecules tested against TRPM8 (Rattus norvegicus (Rat), UniProt Q8R455) (assay: In vivo TRPM8 antagonistic assay in rats (menthol-induced wet-dog shakes)). Conditions: SD male rats; 3 mg/kg po 1 hour prior to menthol 50 mg/kg ip; WDS counted for 5 min.
Procedure: The antagonistic activity of compounds was assessed in the “wet-dog” shakes (WDS) model in rats. […] Pretreatment of the rats with a TRPM8 antagonist prior to menthol administration inhibits the observed shaking behavior.
To assess the ability of a TRPM8 antagonist to prevent menthol induced shaking behavior in Sprague Dawley (SD) male rats, test compounds (3 mg/kg, po, in 0.5% methyl cellulose; N=3-4/group) were administered 1 hour prior to menthol challenge (50 mg/kg, ip, in 10% Macrogol 15 Hydroxystearate/saline). Spontaneous WDS were counted for 5 min post menthol dosing. Inhibition of the spontaneous WDS behavior relative to vehicle pretreatment is expressed as percent inhibition, calculated as follows: % Inhibition=[1−(treatment WDS count/vehicle WDS count)]×100.

Sequence of TRPM8 (Q8R455 whole entry): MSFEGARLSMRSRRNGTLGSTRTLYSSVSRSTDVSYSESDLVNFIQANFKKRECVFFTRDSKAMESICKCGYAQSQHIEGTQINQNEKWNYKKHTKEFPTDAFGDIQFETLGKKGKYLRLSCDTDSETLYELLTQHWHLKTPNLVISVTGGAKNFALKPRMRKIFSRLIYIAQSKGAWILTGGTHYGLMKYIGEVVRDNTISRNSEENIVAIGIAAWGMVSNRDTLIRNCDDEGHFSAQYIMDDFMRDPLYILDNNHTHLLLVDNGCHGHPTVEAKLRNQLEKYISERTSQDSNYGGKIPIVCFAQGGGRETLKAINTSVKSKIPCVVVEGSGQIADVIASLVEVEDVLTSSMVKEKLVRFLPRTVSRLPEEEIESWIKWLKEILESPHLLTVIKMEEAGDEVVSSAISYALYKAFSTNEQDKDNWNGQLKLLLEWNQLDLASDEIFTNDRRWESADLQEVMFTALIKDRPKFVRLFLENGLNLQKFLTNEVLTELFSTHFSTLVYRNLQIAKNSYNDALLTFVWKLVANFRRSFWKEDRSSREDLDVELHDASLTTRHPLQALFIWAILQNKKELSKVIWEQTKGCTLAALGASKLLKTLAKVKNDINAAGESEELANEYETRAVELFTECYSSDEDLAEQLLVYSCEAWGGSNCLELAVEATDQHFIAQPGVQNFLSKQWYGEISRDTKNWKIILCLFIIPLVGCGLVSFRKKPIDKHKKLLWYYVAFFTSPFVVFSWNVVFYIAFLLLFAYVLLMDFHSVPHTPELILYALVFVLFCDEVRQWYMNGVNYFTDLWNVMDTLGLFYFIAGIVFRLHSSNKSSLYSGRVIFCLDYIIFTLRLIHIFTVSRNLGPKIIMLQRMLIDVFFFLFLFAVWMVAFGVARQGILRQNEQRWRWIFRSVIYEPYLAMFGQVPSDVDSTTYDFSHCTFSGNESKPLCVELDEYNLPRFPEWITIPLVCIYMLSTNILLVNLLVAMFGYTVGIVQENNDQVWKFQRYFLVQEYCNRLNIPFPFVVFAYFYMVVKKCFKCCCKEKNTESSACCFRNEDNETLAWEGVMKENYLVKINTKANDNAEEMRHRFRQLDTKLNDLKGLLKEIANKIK

Compound | TRPM8 antagonistic assay (% Inhibition @ 3 mg/kg) [%]
CC(C)c1c(N(Cc2ccc(OC(F)(F)F)cc2)S(=O)(=O)c2ccc(C(=O)O)cc2)ncc2ccccc12 [Example 227] | 72.5
COc1c(N(Cc2ccc(OC(F)(F)F)cc2)S(=O)(=O)c2ccc(C(=O)O)cc2)ncc2ccccc12 [Example 149] | 98.8
O=C(O)c1ccc(S(=O)(=O)N(c2ncc3ccccc3c2C2CC2)C2CCc3cc(OC(F)(F)F)ccc32)cc1 (stereo not drawn) [Example 186] | 83.5
O=C(O)c1ccc(S(=O)(=O)N(Cc2ccc(OC(F)(F)F)cc2)c2ncc3ccccc3c2C(F)(F)F)cc1 [Example 106, 4-({[4-(trifluoromethoxy)benzyl][4-(trifluoromethyl)isoquinolin-3-yl]amino}sulfonyl)benzoic acid] | 92.7

Reference: US8987445B2, “Sulfonamide compounds having TRPM8 antagonistic activity” (Mitsubishi Tanabe Pharma Corporation, priority 2011, dated 2015)
